Experiments:
human STAT6 = assay: Human STAT6 dependent reporter activity (IL-4 stimulated STAT6 reporter assay using STAT6-HEK293 cells); format: cell-based; conditions: Homo sapiens, IL-4 stimulation, luciferase activity, read-out: Inhibition rate (%); for inhibition at 0.1 µM: compound 0.1 μmol/L; for inhibition at 1 µM: compound 1 μmol/L
Description: Test Example 2: Measurement of Human STAT6 Dependent Reporter Activity
1) Construction of Human STAT6-HEK293 Cells
HEK 293 cells maintenance cultured by [Penicillin-Streptomycin (Thermo Fisher Scientific) and FBS, 1 vol % and 10 vol % respectively added to DMEM high glucose (Thermo Fisher Scientific)](manufactured by ATCC) were collected, and suspended in 10 mL of 0.5% BSA/PBS. 1×10^6 cells were collected, the supernatant was removed by centrifuging, and the cells were suspended in 100 μL of Nucleofector solution V (manufactured by Lonza K.K.). 2 μg of STAT6 vector [plasmid DNAs incorporating human STAT6 sequences in pcDNA3.1 (Invitrogen)] was added, and the STAT6 vector was introduced into the HEK293 cells using the program Q-001 initially registered in the Nucleofector®2b. A cell line (STAT6-HEK293 cells) consistently expressing STAT6 was acquired by selecting resistant cells in a medium containing Geneticin® (manufactured by Thermo Fisher Scientific). 2) STAT6 reporter assay using STAT6-HEK293 cells 3×10^6 STAT6-HEK293 cells maintained in assay medium [culture medium supplemented with 1 vol % Geneticin®] were harvested and seeded in a 10 cm dish. 3 μg of a STAT6 reporter vector [plasmid in which a sequence containing a STAT6 binding sequence and a C/EBP binding sequence in tandem was incorporated into pGL4.27 (manufactured by Promega Corporation)] and 9 μL of FuGENE® HD transfection reagent (manufactured by Promega Corporation) were added to 500 μL of Opti-MEM® (manufactured by Thermo Fisher Scientific) to prepare transfection solutions. The transfection solution was vortexed and left to stand for about 5 minutes, then added dropwise to the STAT6-HEK293 cells, which were then cultured overnight in a C02 incubator to produce STAT6 reporter cells.
The prepared STAT6 reporter cells were seeded on B&W isoplate-96 TC (PerkinElmer Japan Co., Ltd.) (3×10^4 cells/50 μL/well) and cultured overnight in a C02 incubator (37° C., 5% C02). 50 μL of assay medium was added to each well instead of the STAT6 reporter cells. The compound addition solution was prepared by diluting the DMSO solution of the example compound 250-fold using the assay medium. 20 μL of compound addition solution or 0.4 vol % DMSO-containing assay medium was added to the plate, and the plate was then cultured in a CO2 incubator for 1 hour. 10 μL of 80 ng/mL human IL-4 solution (Peprotech) or assay medium was added to each well, and the cells were cultured in a CO2 incubator for 6 hours.
STAT6 reporter activity was measured using the Bright-Glo® Luciferase Assay System (Promega). 100 μL of Bright-Glo® reagent was added to each well, and luciferase activity was measured using Infinite® F500. The inhibition rate of each Example compound was calculated by the following formula using the luciferase activity value (G) when no Example compound was added and stimulation with IL-4 was performed, the luciferase activity value (H) when no Example compound was added and stimulation with IL-4 was not performed, and the luciferase activity value (I) when each Example compound was treated and stimulation with IL-4 was performed.
Note that the viable cell rate under each condition was 70% or more, and it was determined that the luciferase activity inhibitory activity of each example compound was appropriately evaluated.

human STAT6/pIL-4Rα = biological target: T1, human STAT6/pIL-4Rα (Homo sapiens, UniProt P42226); assay: Binding inhibitory activity between human STAT6/pIL-4Rα by fluorescence polarization method; conditions: rhSTAT6 (123-658) / FAM-pIL-4Rα peptide
T1 construct: histidine tag
T1 sequence (P42226 123-658): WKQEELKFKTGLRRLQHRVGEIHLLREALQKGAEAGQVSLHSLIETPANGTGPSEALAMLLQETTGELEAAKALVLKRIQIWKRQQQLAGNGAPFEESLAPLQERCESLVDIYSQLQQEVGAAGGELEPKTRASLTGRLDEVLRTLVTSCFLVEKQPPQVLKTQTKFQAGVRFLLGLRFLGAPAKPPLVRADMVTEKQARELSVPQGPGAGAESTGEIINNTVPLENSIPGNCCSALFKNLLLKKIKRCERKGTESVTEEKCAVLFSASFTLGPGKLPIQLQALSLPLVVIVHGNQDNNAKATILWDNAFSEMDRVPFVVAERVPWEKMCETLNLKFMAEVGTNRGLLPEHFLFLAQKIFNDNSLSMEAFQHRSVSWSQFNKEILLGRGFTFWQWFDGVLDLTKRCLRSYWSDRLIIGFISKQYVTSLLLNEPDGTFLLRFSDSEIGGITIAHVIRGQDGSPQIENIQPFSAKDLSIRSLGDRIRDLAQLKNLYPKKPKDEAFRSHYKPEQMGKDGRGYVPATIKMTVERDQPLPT
Description: Test Example 1: Measurement of Binding Inhibitory Activity Between Human STAT6/pIL-p 4Rα by Fluorescence Polarization Method
1) Construction of Histidine Tag-Fused Recombinant Human STAT6 (123 to 658 Region)
A histidine tag-fused recombinant human STAT6 (hereinafter referred to as rhSTAT6) expression vector [plasmid DNA in which a nucleic acid sequence containing human STAT6 (123-658 region) was inserted into a pET28a(+) vector (Novagen)] was inserted into E. coli, and the cells were cultured overnight under culturing conditions at 17° C. with IPTG treatment. After disrupting E. coli with a high-pressure homogenizer (EmulsiFlex-C3, manufactured by AVESTIN, Inc.), affinity purification using Ni-NTA agarose (manufactured by Qiagen), cation exchange chromatography using HiTrap® CM-FF (manufactured by GE healthcare), and gel filtration chromatography using Superdex® 200 10/300GL (manufactured by GE healthcare) were performed to obtain rhSTAT6.
2) Measurement of Binding Inhibitory Activity Between Human STAT6/pIL-4Rα by Fluorescence Polarization Method
A DMSO solution of the example compound was diluted with an assay buffer [for example, a buffer containing 50 mmol/L NaCl, 10 mmol/L HEPES (pH 7.0), 1 mmol/L DTT, 1 mmol/L EDTA, and 0.01 vol % NP-40, and the like] to prepare a compound-added solution. The DMSO concentration in the compound addition solution was adjusted to 1 or 2 vol %. 10 μL of the compound addition solution and an assay buffer containing 1 or 2 vol % DMSO were added to each well of a 384-well plate. 5 μL of an assay buffer solution containing rhSTAT6 (rhSTAT6 concentration: for example, 1 μmol/L) or an assay buffer was added to each well of a 384-well plate. After leaving the plate at room temperature for 30 minutes in the dark, 5 μL of an assay buffer solution (FAM-pIL-4Rp concentration: for example, 80 nmol/L) containing FAM-labeled phosphorylated IL-4Rα peptide (sequence: FAM-Ala-pTyr-Lys-Pro-Phe-Gln-Asp-Leu-IIe-NH2) (hereinafter, FAM-pIL-4Rp) or an assay buffer containing 2 vol % DMSO was added to each well of the 384-well plate. The mixture was left to stand at room temperature for 30 minutes in the dark, and then centrifuged (200 g, 1 minute, room temperature). Fluorescence polarization values were measured using Infinite (registered trademark) F500 (manufactured by Tecan Japan Co., Ltd.) (Excitation: 485 nm, Emission: 535 nm). The inhibition rate of each Example compound was calculated according to the following formula using the fluorescence polarization value (A) when rhSTAT6 and FAM-pIL-4Rp were added without adding the Example compound, the fluorescence polarization value (B) when FAM-pIL-4Rp was added without adding the Example compound and rhSTAT6, and the fluorescence polarization value (C) when each Example compound, rhSTAT6, and FAM-pIL-4Rp were added.
In the evaluation of each example compound, the 50% inhibitory concentration (IC50) of each example compound was calculated from a linear function equation of a straight line connecting two points sandwiching 50%.

Row | IC50 (human STAT6/pIL-4Rα) [nM] | Structure (SMILES) | inhibition at 0.1 µM (human STAT6) [%] | inhibition at 1 µM (human STAT6) [%]
1 | 740 | CCn1c(-c2ccc(N3CCCC3=O)cc2)nc2cc(Br)cc(C(=O)Nc3cccc(C(N)=O)c3)c21 [Ex. 4] | 12 | 64
2 | 660 | CCn1c(-c2ccc(-n3cccn3)cc2)nc2cc(Br)cc(C(=O)Nc3cccc(C(N)=O)c3)c21 [Ex. 5] | 8 | 63
3 | 1140 | CCn1c(-c2ccc(-n3nccn3)cc2)nc2cc(Br)cc(C(=O)Nc3cccc(C(N)=O)c3)c21 [Ex. 6] | -1 | 52
4 | 410 | CCn1c(-c2ccc3c(c2)CCN3C(C)=O)nc2cc(Br)cc(C(=O)Nc3cccc(C(N)=O)c3)c21 [Ex. 8] | 2 | 43
5 | 450 | CCn1c(-c2ccc(-n3cnn(C)c3=O)cc2)cc2cc(Br)cc(C(=O)Nc3ccc(F)c(C(N)=O)c3)c21 [Ex. 9] | 10 | 76
6 | 250 | CCn1c(-c2ccc(-n3c(C)nn(C)c3=O)cc2)cc2cc(C(F)(F)F)cc(C(=O)Nc3cccc(C(N)=O)c3F)c21 [Ex. 15] | 97 | 100
7 | 240 | COCCn1c(-c2ccc(-n3c(C)nn(C)c3=O)cc2)cc2cc(C(F)(F)F)cc(C(=O)Nc3ccc(F)c(C(N)=O)c3)c21 [Ex. 16] | 72 | 100
8 | 350 | CCn1c(-c2ccc(-n3c(C)nn(C)c3=O)cc2)cc2cccc(C(=O)Nc3ccc(F)c(C(N)=O)c3)c21 [Ex. 17] | 81 | 99
9 | 350 | CCn1c(-c2ccc(-n3c(C)nn(C)c3=O)cc2)cc2cc(F)cc(C(=O)Nc3ccc(F)c(C(N)=O)c3)c21 [Ex. 18] | 80 | 99
10 | 360 | CCn1c(-c2ccc(-n3c(C)nn(C)c3=O)cn2)cc2cc(C(F)(F)F)cc(C(=O)Nc3cccc(C(N)=O)c3F)c21 [Ex. 19] | 42 | 98
11 | 660 | CCn1c(-c2ccc(-n3c(C)nn(C)c3=O)nc2)cc2cc(C(F)(F)F)cc(C(=O)Nc3ccc(F)c(C(N)=O)c3)c21 [Ex. 20] | 50 | 98
12 | 380 | CCn1c(-c2ccc(-n3c(C)nn(C)c3=O)cc2)cc2ccnc(C(=O)Nc3ccc(F)c(C(N)=O)c3)c21 [Ex. 21] | 73 | 98
13 | 320 | CCn1c(-c2ccc(-n3c(C)nn(C)c3=O)cc2)cc2ccnc(C(=O)Nc3cccc(C(N)=O)c3F)c21 [Ex. 22] | 89 | 99
14 | 240 | CCn1c(-c2ccc(-n3c(C)nn(C)c3=O)cc2)cc2cc(C(F)(F)F)nc(C(=O)Nc3ccc(F)c(C(N)=O)c3)c21 [Ex. 23] | 86 | 100
15 | 320 | Cc1nn(C)c(=O)n1-c1ccc(-c2cc3ccnc(C(=O)Nc4ccc(F)c(C(N)=O)c4)c3n2CC2CC2)cc1 [Ex. 24] | 54 | 98
16 | 280 | CCn1c(-c2ccc(-n3cnn(C)c3=O)cc2)cc2ccnc(C(=O)Nc3ccc(F)c(C(N)=O)c3)c21 [Ex. 25] | 64 | 97
17 | 390 | COCCn1c(-c2ccc(-n3c(C)nn(C)c3=O)cc2)cc2ccnc(C(=O)Nc3cccc(C(N)=O)c3F)c21 [Ex. 26] | 63 | 98
18 | 350 | COCCn1c(-c2ccc(-n3c(C)nn(C)c3=O)cc2)cc2ccnc(C(=O)Nc3ccc(F)c(C(N)=O)c3)c21 [Ex. 27] | 52 | 96
19 | 270 | CCn1c(-c2ccc(-n3c(C)nn(C)c3=O)cc2)cc2c(C(F)(F)F)ccc(C(=O)Nc3ccc(F)c(C(N)=O)c3)c21 [Ex. 30] | 76 | 100
20 | 460 | CCn1c(-c2ccc(N3CCOCC3=O)cc2)cc2cc(C(F)(F)F)cc(C(=O)Nc3ccc(F)c(C(N)=O)c3)c21 [Ex. 31] | 80 | 97
21 | 420 | CCn1c(-c2ccc(-n3c(C)nn(C)c3=O)cc2)cc2cc(C)cc(C(=O)Nc3ccc(F)c(C(N)=O)c3)c21 [Ex. 32] | 91 | 100
22 | 100 | COCCn1c(-c2ccc(-n3c(C)nn(C)c3=O)cc2)cc2cc(C(F)(F)F)cc(C(=O)Nc3cccc(C(N)=O)c3F)c21 [Ex. 33] | 75 | 100
23 | 610 | Cc1nn(C)c(=O)n1-c1ccc(-c2cc3cccc(C(=O)Nc4ccc(F)c(C(N)=O)c4)c3n2CC2CC2)cc1 [Ex. 34] | 39 | 96

— patent publication US20260092054A1, “FUSED RING COMPOUND AND PHARMACEUTICAL CONTAINING SAME” (KAKEN PHARMACEUTICAL CO., LTD., priority 2022, published 2026)
